Test results reported in article PMC9481151, “Discovery of new symmetrical and asymmetrical nitrile-containing 1,4-dihydropyridine derivatives as dual kinases and P-glycoprotein inhibitors: synthesis, in vitro assays, and in silico studies” (Journal of Enzyme Inhibition and Medicinal Chemistry, 2022).

Key:
Bacillus subtilis = assay: Agar well diffusion method
Staphylococcus aureus = assay: Agar well diffusion method
HCT-15 = assay: NCI single dose (10 µM) SRB screen; type: cell-based, human; conditions: colon cancer, 48 h
SF-268 = assay: NCI single dose (10 µM) SRB screen; type: cell-based, human; conditions: CNS cancer, 48 h
NCI-H522 = assay: NCI single dose (10 µM) SRB screen; type: cell-based, human; conditions: non-small cell lung cancer, 48 h
UACC-62 = assay: NCI single dose (10 µM) SRB screen; type: cell-based, human; conditions: melanoma, 48 h
HCC-2998 = assay: NCI single dose (10 µM) SRB screen; type: cell-based, human; conditions: colon cancer, 48 h
PC-3 = assay: NCI single dose (10 µM) SRB screen; type: cell-based, human; conditions: prostate cancer, 48 h
DU-145 = assay: NCI single dose (10 µM) SRB screen; type: cell-based, human; conditions: prostate cancer, 48 h
LOX IMVI = assay: NCI single dose (10 µM) SRB screen; type: cell-based, human; conditions: melanoma, 48 h
MDA-MB-231 = assay: NCI single dose (10 µM) SRB screen; type: cell-based, human; conditions: breast cancer, 48 h
M14 = assay: NCI single dose (10 µM) SRB screen; type: cell-based, human; conditions: melanoma, 48 h
MOLT-4 = assay: NCI single dose (10 µM) SRB screen; type: cell-based, human; conditions: leukaemia, 48 h
NCI-H23 = assay: NCI single dose (10 µM) SRB screen; type: cell-based, human; conditions: non-small cell lung cancer, 48 h
OVCAR-8 = assay: NCI single dose (10 µM) SRB screen; type: cell-based, human; conditions: ovarian cancer, 48 h
UO-31 = assay: NCI single dose (10 µM) SRB screen; type: cell-based, human; conditions: renal cancer, 48 h
Aspergillus flavus = assay: Agar well diffusion method
Candida albicans = assay: Agar well diffusion method
NCI/ADR-RES = assay: NCI single dose (10 µM) SRB screen; type: cell-based, human; conditions: ovarian cancer, 48 h
OVCAR-3 = assay: NCI single dose (10 µM) SRB screen; type: cell-based, human; conditions: ovarian cancer, 48 h
HS578T = assay: NCI single dose (10 µM) SRB screen; type: cell-based, human; conditions: breast cancer, 48 h
SNB-75 = assay: NCI single dose (10 µM) SRB screen; type: cell-based, human; conditions: CNS cancer, 48 h
OVCAR-4 = assay: NCI single dose (10 µM) SRB screen; type: cell-based, human; conditions: ovarian cancer, 48 h
NCI-H226 = assay: NCI single dose (10 µM) SRB screen; type: cell-based, human; conditions: non-small cell lung cancer, 48 h
T-47D = assay: NCI single dose (10 µM) SRB screen; type: cell-based, human; conditions: breast cancer, 48 h
MDA-MB-435 = assay: NCI single dose (10 µM) SRB screen; type: cell-based, human; conditions: melanoma, 48 h
HOP-92 = assay: NCI single dose (10 µM) SRB screen; type: cell-based, human; conditions: non-small cell lung cancer, 48 h
NCI-H322M = assay: NCI single dose (10 µM) SRB screen; type: cell-based; conditions: non-small cell lung cancer, 48 h
U251 = assay: NCI single dose (10 µM) SRB screen; type: cell-based, human; conditions: CNS cancer, 48 h
CAKI-1 = assay: NCI single dose (10 µM) SRB screen; type: cell-based, human; conditions: renal cancer, 48 h
SF-539 = assay: NCI single dose (10 µM) SRB screen; type: cell-based, human; conditions: CNS cancer, 48 h
TK-10 = assay: NCI single dose (10 µM) SRB screen; type: cell-based, human; conditions: renal cancer, 48 h
NCI 60 cancer cell lines = assay: NCI single dose (10 µM) SRB screen, mean over panel; type: cell-based, human; conditions: mean over 60 cell lines, 48 h
IGROV1 = assay: NCI single dose (10 µM) SRB screen; type: cell-based, human; conditions: ovarian cancer, 48 h
A549/ATCC = assay: NCI single dose (10 µM) SRB screen; type: cell-based, human; conditions: non-small cell lung cancer, 48 h
Escherichia coli = assay: Agar well diffusion method; conditions: relative to ciprofloxacin
SN12C = assay: NCI single dose (10 µM) SRB screen; type: cell-based, human; conditions: renal cancer, 48 h
BT-549 = assay: NCI single dose (10 µM) SRB screen; type: cell-based, human; conditions: breast cancer, 48 h
MDA-MB-468 = assay: NCI single dose (10 µM) SRB screen; type: cell-based, human; conditions: breast cancer, 48 h
SNB-19 = assay: NCI single dose (10 µM) SRB screen; type: cell-based, human; conditions: CNS cancer, 48 h
RPMI-8226 = assay: NCI single dose (10 µM) SRB screen; type: cell-based, human; conditions: leukaemia, 48 h
SF-295 = assay: NCI single dose (10 µM) SRB screen; type: cell-based, human; conditions: CNS cancer, 48 h
COLO 205 = assay: NCI single dose (10 µM) SRB screen; type: cell-based, human; conditions: colon cancer, 48 h
MALME-3M = assay: NCI single dose (10 µM) SRB screen; type: cell-based, human; conditions: melanoma, 48 h
SR = assay: NCI single dose (10 µM) SRB screen; type: cell-based, human; conditions: leukaemia, 48 h
UACC-257 = assay: NCI single dose (10 µM) SRB screen; type: cell-based, human; conditions: melanoma, 48 h
786-0 = assay: NCI single dose (10 µM) SRB screen; type: cell-based, human; conditions: renal cancer, 48 h
RXF 393 = assay: NCI single dose (10 µM) SRB screen; type: cell-based, human; conditions: renal cancer, 48 h
SW-620 = assay: NCI single dose (10 µM) SRB screen; type: cell-based, human; conditions: colon cancer, 48 h
HOP-62 = assay: NCI single dose (10 µM) SRB screen; type: cell-based, human; conditions: non-small cell lung cancer, 48 h
SK-MEL-28 = assay: NCI single dose (10 µM) SRB screen; type: cell-based, human; conditions: melanoma, 48 h

CCOC(=O)C1=C(C)NC(C)=C(C(=O)OC(C)C)C1c1cccc(C#N)c1 (racemic) [Compound 2h, (±)-3-Ethyl 5-isopropyl 4-(3-cyanophenyl)-2,6-dimethyl-1,4-dihydropyridine-3,5-dicarboxylate]
zone of inhibition at 1000 µg/mL (Bacillus subtilis; Bacillus subtilis, 24 h, read-out: Diameter of inhibition zone, B. subtilis): 8 mm
% activity index, B. subtilis (Bacillus subtilis; relative to ciprofloxacin): 34.8%
zone of inhibition at 1000 µg/mL (Staphylococcus aureus; Staphylococcus aureus, 24 h, read-out: Diameter of inhibition zone, S. aureus): 11 mm
% activity index, S. aureus (Staphylococcus aureus; relative to ciprofloxacin): 45.8%
GI% HCT-15 (HCT-15): – (Only GI% ≥ 10 are shown)
GI% SF-268 (SF-268): – (Only GI% ≥ 10 are shown)
GI% NCI-H522 (NCI-H522): – (Only GI% ≥ 10 are shown)
GI% UACC-62 (UACC-62): – (Only GI% ≥ 10 are shown)
GI% HCC-2998 (HCC-2998): – (Only GI% ≥ 10 are shown)
GI% PC-3 (PC-3): 12%
GI% DU-145 (DU-145): – (Only GI% ≥ 10 are shown)
GI% LOX IMVI (LOX IMVI): – (Only GI% ≥ 10 are shown)
GI% MDA-MB-231 (MDA-MB-231): – (Only GI% ≥ 10 are shown)
GI% M14 (M14): – (Only GI% ≥ 10 are shown)
GI% MOLT-4 (MOLT-4): 11%
GI% NCI-H23 (NCI-H23): – (Only GI% ≥ 10 are shown)
GI% OVCAR-8 (OVCAR-8): – (Only GI% ≥ 10 are shown)
GI% UO-31 (UO-31): – (Only GI% ≥ 10 are shown)
zone of inhibition at 1000 µg/mL (Aspergillus flavus; Aspergillus flavus, 24 h, read-out: Diameter of inhibition zone, A. flavus): 12 mm
% activity index, A. flavus (Aspergillus flavus; relative to clotrimazole): 48%
zone of inhibition at 1000 µg/mL (Candida albicans; Candida albicans, 24 h, read-out: Diameter of inhibition zone, C. albicans): 8 mm
% activity index, C. albicans (Candida albicans; relative to clotrimazole): 29.6%
GI% NCI/ADR-RES (NCI/ADR-RES): – (Only GI% ≥ 10 are shown)
GI% OVCAR-3 (OVCAR-3): – (Only GI% ≥ 10 are shown)
GI% HS578T (HS578T): – (Only GI% ≥ 10 are shown)
GI% SNB-75 (SNB-75): 15%
GI% OVCAR-4 (OVCAR-4): – (Only GI% ≥ 10 are shown)
GI% NCI-H226 (NCI-H226): – (Only GI% ≥ 10 are shown)
GI% T-47D (T-47D): – (Only GI% ≥ 10 are shown)
GI% MDA-MB-435 (MDA-MB-435): – (Only GI% ≥ 10 are shown)
GI% HOP-92 (HOP-92): – (Only GI% ≥ 10 are shown)
GI% NCI-H322M (NCI-H322M): – (Only GI% ≥ 10 are shown)
GI% U251 (U251): – (Only GI% ≥ 10 are shown)
GI% CAKI-1 (CAKI-1): 15%
GI% SF-539 (SF-539): – (Only GI% ≥ 10 are shown)
GI% TK-10 (TK-10): – (Only GI% ≥ 10 are shown)
Mean GI% (NCI 60 cancer cell lines): 0%
GI% IGROV1 (IGROV1): – (Only GI% ≥ 10 are shown)
GI% A549/ATCC (A549/ATCC): – (Only GI% ≥ 10 are shown)
% activity index, E. coli (Escherichia coli): – (Values below 25 are of limited value and not shown as they refer either to inactive or non-diffusing compounds)
GI% SN12C (SN12C): – (Only GI% ≥ 10 are shown)
GI% BT-549 (BT-549): – (Only GI% ≥ 10 are shown)
GI% MDA-MB-468 (MDA-MB-468): 20%
GI% SNB-19 (SNB-19): – (Only GI% ≥ 10 are shown)
GI% RPMI-8226 (RPMI-8226): – (Only GI% ≥ 10 are shown)
GI% SF-295 (SF-295): – (Only GI% ≥ 10 are shown)
GI% COLO 205 (COLO 205): – (Only GI% ≥ 10 are shown)
GI% MALME-3M (MALME-3M): – (Only GI% ≥ 10 are shown)
GI% SR (SR): – (Only GI% ≥ 10 are shown)
GI% UACC-257 (UACC-257): – (Only GI% ≥ 10 are shown)
GI% 786-0 (786-0): – (Only GI% ≥ 10 are shown)
GI% RXF 393 (RXF 393): – (Only GI% ≥ 10 are shown)
GI% SW-620 (SW-620): – (Only GI% ≥ 10 are shown)
GI% HOP-62 (HOP-62): – (Only GI% ≥ 10 are shown)
GI% SK-MEL-28 (SK-MEL-28): – (Only GI% ≥ 10 are shown)
